Assay [1] in a line: 4 week Zucker fa/fa rat study, body weight. The assay is classed as in vivo. Particulars: Zucker fa/fa rats. Here is the method:
Male Zucker fa/fa rats were housed one rat per cage in a temperature-controlled room with 12-hour light/dark cycle. The rats were fed on regular rodent diet (Purina 5008) and allowed ad libitum access to water. The experiment was initiated at an age of 8-9 week, and at body weight of about 350 g. Test compound was prepared in 0.5% HPMC for dosing q.d at 1 mg/kg, 3 mg/kg and 10 mg/kg, as noted in the table of results below. Body weight, food intake and fed blood glucose were monitored weekly. On day 26, all rats were given with the last dose 1 hr prior to the necropsy.

Assay [2] in a line: 10-day diet-induced obese C57bl/6 mice study, body weight change. The assay is classed as in vivo, mouse. Also noted: unit not given here. Particulars: DIO C57BL/6J mice, oral 30 mg/kg once a day, after 10 days of treatment. Here is the method: Male DIO C57BL/6J mice from Taconic were maintained on high fat diet D12492 containing 60% kCal of mostly saturated fats (Research Diets Inc.) for 4 week from 6-week old. Test compounds were prepared in 0.5% hydroxypropyl methyl cellulose for oral dosing at 30 mg/kg once a day. After 10-days of treatment, body weight change was recorded.
Representative compounds of the present invention were tested according to the procedure as described above, with results as listed in Table 7, below. In the results presented below, * indicates a calculated p value <0.05 vs. vehicle-treated group.

Results on 1 compound are retold here after US9102669B2, “Substituted piperidinyl-pyridazinyl derivatives useful as SCD 1 inhibitors” (Janssen Pharmaceutica NV, priority 2011, dated 2015).

For `Cn1cc(-c2ccc(N3CCC(N4CCc5ccc(F)cc54)CC3)nn2)cn1` [Compound #11, 6-fluoro-1-(1-(6-(1-methyl-1H-pyrazol-4-yl)pyridazin-3-yl)piperidin-4-yl)indoline], in assay [1] (1 mg/kg q.d.), the “Body Weight Day 1” value is 373 ± 7 grams, the “Body Weight Day 8” value came to 404 ± 13 grams, the “Body Weight Day 15” value is on record as 442 ± 12 grams and the “Body Weight Day 22” value is listed as 482 ± 10 grams. In addition, the “Body Weight Day 26” value in assay [1] (1 mg/kg q.d.) was found to be 496 ± 10 grams. For the same compound, in assay [1] (3 mg/kg q.d.), the “Body Weight Day 1” value is given as 372 ± 6 grams, the “Body Weight Day 8” value worked out at 417 ± 7 grams, the “Body Weight Day 15” value was 452 ± 6 grams and the “Body Weight Day 22” value came out at 484 ± 6 grams. For the same compound, in assay [1] (3 mg/kg q.d.), the “Body Weight Day 26” value was 498 ± 6 grams. Also, in assay [1] (10 mg/kg q.d.), the “Body Weight Day 1” value was 373 ± 5 grams, the “Body Weight Day 8” value stood at 402 ± 6 grams, the “Body Weight Day 15” value came to 430 ± 7 grams and the “Body Weight Day 22” value is given as 445 ± 9 grams. Besides, the “Body Weight Day 26” value in assay [1] (10 mg/kg q.d.) is 451 ± 9 grams. Moreover, the body weight change in assay [2] is reported as −2.1 ± 0.3 *.
